Measured values taken from US11040947B2, “Substituted quinazolines as matrix metalloproteinase-9 hemopexin domain inhibitors” (The Research Foundation for The State University of New York, priority 2017, dated 2021).

Assays:
[1] = tested on: HT1080 cells stably expressing GFP; experiment: chorioallantoic membrane (CAM) assay, invasion; type: in vivo, chicken embryo; conditions: 100 μM stock solution (final estimated 0.5 μM), vs DMSO or 1f
Description: HT1080 cells stably expressing GFP were mixed with a type I collagen solution (3 mg/mL) and seeded atop the CAM to ensure the cells localized to a specific area. […] The invasion of cancer cells through the epithelium and basement membrane of the upper CAM into connecting tissue was examined by hematoxylin and eosin staining in addition to fluorescence microscopy for GFP^+ cells.

[2] = tested on: HT1080 cells; experiment: chorioallantoic membrane (CAM) assay, angiogenesis; type: in vivo, chicken embryo; conditions: 100 μM stock solution (final estimated 0.5 μM), 4-day incubation, vs DMSO and 1f
Description: A CAM assay was carried out to evaluate angiogenic and invasive potential of HT1080 cells after treatment with 3c. […] After a 4-day incubation, neovascularization was imaged and quantified.

[3] = tested on: MMP-9 at the cell surface of HT1080 cells; experiment: MMP-9 cell surface localization, immunofluorescence in HT1080 cells; type: cell-based, Human
Description: HT1080 cells were fixed in 4% paraformaldehyde then subsequently incubated with anti-MMP-9 in addition to anti-α4 and/or β1 integrin antibodies to monitor relative levels of localization of these proteins at the cell surface. The cells were counterstained with DAPI nuclear dye.

[4] = tested on: Src^Tyr418, FAK^Tyr576/577, PAX^Tyr118 phosphorylation; experiment: phosphorylation of Src and downstream targets in HT1080 cells; type: cell-based, Human; conditions: 50 μM
Description: HT1080 cells transiently co-transfected with tagged MMP-9 cDNAs were prepared as described above.

[5] = tested on: EGFR-CD44 and EGFR-β1 integrin interaction; experiment: EGFR co-IP assay with CD44 and β1 integrin in HT1080 cells; type: cell-based, Human; conditions: 50 μM
Description: HT1080 cells were treated with 50 μM 3c, 1a, 1f or DMSO alone. Cell lysates were collected and analyzed by a co-IP assay in which endogenous EGFR was captured with an anti-EGFR antibody and served as an input control. CD44 and β1 integrin were individually probed on the immunoblot.

## O=C(CCCSc1nc2c(c(=O)[nH]1)CCCC2)Nc1ccc(F)cc1 [Compound 3c, N-(4-Fluorophenyl)-4-(4-oxo-3,4,5,6,7,8-hexahydroquinazolin-2-ylthio)butanamide]
[1]
  invasion of CAM tissue: reduced invasion of CAM tissue
[2]
  angiogenic potential of HT1080 cells (neovascularization): significantly reduced the angiogenic potential of HT1080 cells
[3]
  localization of MMP-9 on the cell surface: loss of MMP-9 from the cell surface
[4]
  Src^Tyr418 phosphorylation and phosphorylation of FAK^Tyr576/577 and PAX^Tyr118: reduced Src^Tyr418 phosphorylation
[5]
  interaction between EGFR-CD44 and EGFR-β1 integrin: Decreased interaction between EGFR-CD44 and EGFR-β1 integrin
